Data from the supplement of paper PMC10331698.
± gives the standard deviation of the averaged measurements.

Legend:
Test in all cases: level (log10 ratio to DMSO vehicle control); higher = higher biomarker level / cell amount than vehicle control
[1] = compound: FC(F)(F)C(F)(F)C(F)(F)C(F)(F)C(F)(F)C(F)(F)CC1CO1 [3-(Perfluorohexyl)-1,2-epoxypropane]; settings: in DMSO
Experimental: (§1)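 BioMAP Diversity Plus panel of 12 human primary cell co-culture systems (3C, 4H, LPS, SAg, BT, BF4T, BE3C, CASM3C, HDF3CGF, KF3CT, MyoF, Mphg). Compounds were added 1 h before stimulation and left for 24 h (MyoF 48 h; BT 72 h for soluble read-outs or 6 d for IgG). Biomarkers were read by ELISA, cytotoxicity by SRB, PBMC viability and proliferation by Alamar Blue. Each well value was divided by the mean of 8 DMSO control wells on the same plate and log10 transformed; duplicate blinded samples were tested at 4 concentrations.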

[2] = compound: NS(=O)(=O)C(F)(F)C(F)(F)C(F)(F)C(F)(F)C(F)(F)C(F)(F)F [Perfluorohexanesulfonamide]; settings: in DMSO
Experimental: as §1

[3] = compound: NC(=O)C(F)(F)C(F)(F)C(F)(F)C(F)F; settings: in DMSO
Experimental: as §1

[4] = compound: O=S(=O)(O)CCC(F)(F)C(F)(F)C(F)(F)C(F)(F)C(F)(F)C(F)(F)F [6:2 Fluorotelomer sulfonic acid]; settings: in DMSO
Experimental: as §1

[5] = compound: FC(F)(F)C(F)(F)C(F)(F)CC1CO1 [1H,1H-Heptafluorobutyl epoxide]; settings: in DMSO
Experimental: as §1

[6] = compound: O=S(=O)(F)C(F)(F)C(F)(F)C(F)(F)C(F)(F)C(F)(F)C(F)(F)C(F)(F)C(F)(F)F [Perfluorooctanesulfonyl fluoride]; settings: in DMSO
Experimental: as §1

[7] = compound: O=S(=O)(O)C(F)(F)C(F)(F)C(F)(F)C(F)(F)C(F)(F)C(F)(F)C(F)(F)C(F)(F)C(F)(F)C(F)(F)F [Sodium perfluorodecanesulfonate]; settings: in DMSO
Experimental: as §1

[8] = compound: C=CC(=O)OCC(F)(F)C(F)(F)C(F)(F)COC(=O)C=C [1H,1H,5H,5H-Perfluoro-1,5-pentanediol diacrylate]; settings: 6700 nM; in DMSO
Experimental: as §1

[9] = compound: FC(F)(F)C(F)(F)C(F)(F)C(F)(F)C(F)(F)C(F)(F)C(F)(F)I [1-Iodopentadecafluoroheptane]; settings: in DMSO
Experimental: as §1

[10] = compound: FC(F)(F)C(F)(F)C(F)(F)CI [Heptafluorobutyl iodide]; settings: in DMSO
Experimental: as §1

[11] = compound: C=C(C)C(=O)OCCC(F)(F)C(F)(F)C(F)(F)C(F)(F)C(F)(F)C(F)(F)F [6:2 Fluorotelomer methacrylate]; settings: in DMSO
Experimental: as §1

[12] = compound: O=C(O)C=CC(F)(C(F)(F)F)C(F)(F)F [3-(Perfluoroisopropyl)-2-propenoic acid]; settings: in DMSO
Experimental: as §1

[13] = compound: OCC(F)(F)C(F)(F)C(F)(F)CO [Hexafluoroamylene glycol]; settings: in DMSO
Experimental: as §1

[14] = compound: NC(=O)C(F)(F)C(F)(F)C(F)(F)C(F)(F)C(N)=O [Octafluoroadipamide]; settings: in DMSO
Experimental: as §1

[15] = compound: COC(=O)C(F)(F)C(F)(F)OC(F)(C(F)(F)F)C(F)(F)OC(F)=C(F)F [Methyl perfluoro(3-(1-ethenyloxypropan-2-yloxy)propanoate)]; settings: in DMSO
Experimental: as §1

[16] = compound: O=C(O)C(F)(F)C(F)(F)C(F)(F)C(F)(F)C(F)(F)C(F)(F)C(F)(F)C(F)(F)C(F)(F)C(F)F [11-H-Perfluoroundecanoic acid]; settings: in DMSO
Experimental: as §1

[17] = compound: O=S(=O)(Cl)C(F)(F)C(F)(F)C(F)(F)C(F)(F)C(F)(F)C(F)(F)C(F)(F)C(F)(F)F [Perfluoro-1-octanesulfonyl chloride]; settings: in DMSO
Experimental: as §1

[18] = compound: FC(F)(F)C(F)(F)CNCC(F)(F)C(F)(F)F [Bis(1H,1H-perfluoropropyl)amine]; settings: in DMSO
Experimental: as §1

[19] = compound: NC(=O)C(F)(F)C(F)(F)C(F)(F)C(F)(F)F [Nonafluoropentanamide]; settings: in DMSO
Experimental: as §1

LPS:CCL2/MCP-1 was tested. Which “level (log10)” value ([1]; 6700 nM) did it give?
The value was -0.012 ± 0.011.

What about the “level (log10)” value ([1]; 20000 nM) of the same test system?
The value was -0.0055 ± 0.019.

And the “level (log10)” value ([1]; 60000 nM)?
The value was 0.0025 ± 0.0078.

What about the “level (log10)” value ([2]; 6700 nM) of the same test system?
Its value is -0.011 ± 0.0028.

What about the “level (log10)” value ([2]; 20000 nM) of the same test system?
The value was -0.024 ± 0.018.

What about the “level (log10)” value ([2]; 60000 nM) of the same test system?
Its value is -0.102 ± 0.034.

What about the “level (log10)” value ([3]; 6700 nM) of the same test system?
Its value is 0.009 ± 0.045.

What about the “level (log10)” value ([3]; 20000 nM) of the same test system?
The value was 0.005 ± 0.042.

And the “level (log10)” value ([3]; 60000 nM)?
Its value is 0.03 ± 0.013.

And the “level (log10)” value ([4]; 6700 nM)?
The value was 0.0095 ± 0.0021.

What about the “level (log10)” value ([4]; 20000 nM) of the same test system?
The value was 0.037 ± 0.018.

And the “level (log10)” value ([4]; 60000 nM)?
Its value is 0.056 ± 0.037.

And the “level (log10)” value ([5]; 6700 nM)?
Its value is -0.0025 ± 0.005.

And the “level (log10)” value ([5]; 20000 nM)?
Its value is -0.017 ± 0.023.

And the “level (log10)” value ([5]; 60000 nM)?
The value was -0.0095 ± 0.0021.

And the “level (log10)” value ([6]; 6700 nM)?
The value was 0.0005 ± 0.015.

And the “level (log10)” value ([6]; 20000 nM)?
The value was -0.012 ± 0.016.

What about the “level (log10)” value ([6]; 60000 nM) of the same test system?
Its value is 0.0145 ± 0.028.

What about the “level (log10)” value ([7]; 1500 nM) of the same test system?
Its value is -0.0165 ± 0.011.

And the “level (log10)” value ([7]; 4400 nM)?
Its value is -0.041 ± 0.0085.

And the “level (log10)” value ([7]; 13000 nM)?
Its value is -0.0235 ± 0.033.

And the “level (log10)” value ([7]; 40000 nM)?
The value was -0.0655 ± 0.077.

What about the “level (log10)” value [8] of the same test system?
The value was -0.042 ± 0.014.

What about the “level (log10)” value ([9]; 6700 nM) of the same test system?
Its value is 0.0035 ± 0.00071.

What about the “level (log10)” value ([9]; 20000 nM) of the same test system?
Its value is 0.0225 ± 0.0021.

What about the “level (log10)” value ([10]; 6700 nM) of the same test system?
Its value is 0.008 ± 0.041.

What about the “level (log10)” value ([10]; 20000 nM) of the same test system?
The value was 0.0035 ± 0.013.

And the “level (log10)” value ([10]; 60000 nM)?
The value was 0.027 ± 0.024.

What about the “level (log10)” value ([11]; 6700 nM) of the same test system?
The value was -0.007 ± 0.05.

And the “level (log10)” value ([11]; 20000 nM)?
The value was -0.014 ± 0.034.

What about the “level (log10)” value ([11]; 60000 nM) of the same test system?
Its value is -0.043.

And the “level (log10)” value ([12]; 6700 nM)?
Its value is 0.004 ± 0.0085.

What about the “level (log10)” value ([12]; 20000 nM) of the same test system?
Its value is -0.0155 ± 0.013.

And the “level (log10)” value ([12]; 60000 nM)?
The value was -0.0015 ± 0.0021.

What about the “level (log10)” value ([13]; 6700 nM) of the same test system?
Its value is 0.0055 ± 0.012.

What about the “level (log10)” value ([13]; 20000 nM) of the same test system?
Its value is -0.009 ± 0.03.

And the “level (log10)” value ([13]; 60000 nM)?
Its value is 0.0135 ± 0.04.

And the “level (log10)” value ([14]; 6700 nM)?
Its value is 0.003 ± 0.0042.

And the “level (log10)” value ([14]; 20000 nM)?
The value was 0.0005 ± 0.0035.

What about the “level (log10)” value ([14]; 60000 nM) of the same test system?
The value was 0.018 ± 0.021.

What about the “level (log10)” value ([15]; 6700 nM) of the same test system?
Its value is -0.0235 ± 0.00071.

What about the “level (log10)” value ([15]; 20000 nM) of the same test system?
Its value is 0.013 ± 0.025.

And the “level (log10)” value ([16]; 6700 nM)?
Its value is -0.009 ± 0.0085.

And the “level (log10)” value ([16]; 20000 nM)?
The value was -0.022 ± 0.0099.

What about the “level (log10)” value ([17]; 6700 nM) of the same test system?
Its value is -0.0075 ± 0.0078.

And the “level (log10)” value ([17]; 20000 nM)?
Its value is 0.025 ± 0.021.

And the “level (log10)” value ([17]; 60000 nM)?
The value was 0.0205 ± 0.029.

What about the “level (log10)” value ([18]; 6700 nM) of the same test system?
Its value is -0.0105 ± 0.00071.

What about the “level (log10)” value ([18]; 20000 nM) of the same test system?
The value was -0.006 ± 0.0085.

And the “level (log10)” value ([18]; 60000 nM)?
The value was 0.0015 ± 0.03.

And the “level (log10)” value ([19]; 6700 nM)?
Its value is 0.005 ± 0.011.

What about the “level (log10)” value ([19]; 20000 nM) of the same test system?
Its value is 0.022 ± 0.035.

And the “level (log10)” value ([19]; 60000 nM)?
The value was 0.0325 ± 0.039.
